# Reference: patent US20130267484A1, “TREATMENT OF RHEUMATOID ARTHRITIS WITH MASITINIB” (AB SCIENCE, priority 2010, published 2013)
# Values joined by “and” are separate entries in the source; they are usually repeats but may differ in a detail not shown here. Equal entries are not always repeated.
# Tested on: DMARD-refractory active RA
# Assay: Phase 2a trial of masitinib in DMARD-refractory active RA: efficacy (ACR, ACRn, CRP, DAS28)
# Type: in vivo, Human
# Design: ACRn Mean ± SD / ACRn Median: unit not given here
# From the text: The main exclusion criteria were patients with: inadequate bone marrow function, defined as an absolute neutrophil count ≦2.5×10^9/litre, and platelets ≦100×10^9/litre; active current infection, history of infection requiring hospitalisation, history of recurrent infections, or treatment with antibiotics within 2 weeks of screening. Treatment wash-out periods observed prior to entry to the study were: a) DMARD use within 4 weeks; b) five half-lives, or wash-out in accordance for a specific drug, whichever is longer; c) any live (attenuated) vaccines taken within 4 weeks; d) use of more than one NSAID or its dosage change within 4 weeks; e) prednisone or equivalent corticosteroid dosage >10 mg/day or any dosage change within 4 weeks; and f) prednisone or equivalent corticosteroid dosage >20 mg administered via intra-articular injection, bolus intramuscular or intravenous treatment within 4 weeks. Other exclusion criteria included any previous use of recombinant interleukin-1 receptor antagonist (IL1-Ra) and patients who were pregnant or nursing.
# Efficacy data are presented using descriptive statistics, contrasting initial dosage groups or according to previous DMARD failure. For comparison of groups according to initial dosage on a continuous variable, Student test (with Satterwhaite correction for unequal variance) or Wilcoxon test were used when normality was not rejected or rejected, respectively (normality determined via the Shapiro-Wilk test). For the same comparison on a qualitative variable, Chi-square or Fisher Exact test (if the Chi-square hypotheses were not filled) were used. The rate of patients achieving the various ACR response variables after 12 weeks of treatment (remission rate) are presented in terms of percentage and number of patients. Patients were assigned to either 3 or 6 mg/kg/day treatment groups based upon a randomisation schedule generated for packaging and labelling by the Biostatistics Section of AB Science. Individual treatment doses to be administered were supplied in sealed envelopes to be opened by the investigator at time of inclusion. Patients received the treatment from the investigator on an open basis.
# Due to the relatively high patient drop-out rate of this study, analysis was conducted on two different datasets: one with an imputation of missing values according to the last observation carried forward (LOCF) methodology and the other in the absence of data imputation, i.e. the observed cases (OC). Analysis for efficacy was performed on a modified Intention-To-Treat (ITT) population and Per Protocol (PP) population. […] The PP population was defined as a subgroup of the ITT population that in addition had presented no major protocol deviations and had completed at least 28 days of treatment exposure.
# [1] = W 60, extension phase, ITT population, n = 8
# [2] = W 72, extension phase, ITT population, n = 7
# [3] = W 72, extension phase, ITT population, n = 9
# [4] = W 84, extension phase, ITT population, n = 4
# [5] = W 84, extension phase, ITT population, n = 8
# [6] = initial dosage 3 mg/kg/day (n = 22), ITT population
# [7] = initial dosage 3 mg/kg/day (n = 22), ITT population, listed as Masitinib
# [8] = initial dosage 6 mg/kg/day (n = 18), ITT population
# [9] = week 12, ITT LOCF, All patients (n = 34)
# [10] = week 12, ITT LOCF, All patients (n = 39)
# [11] = week 12, ITT LOCF, Resistance to MTX (n = 28)
# [12] = week 12, ITT LOCF, Resistance to MTX (n = 32)
# [13] = week 12, ITT LOCF, Resistance to anti-TNFα (n = 18)
# [14] = week 12, ITT LOCF, Resistance to anti-TNFα (n = 19)
# [15] = week 12, PP OC, All patients (n = 24)
# [16] = week 12, PP OC, All patients (n = 27)
# [17] = week 12, PP OC, Resistance to MTX (n = 20)
# [18] = week 12, PP OC, Resistance to MTX (n = 23)
# [19] = week 12, PP OC, Resistance to anti-TNFα (n = 13)
# [20] = week 12, PP OC, Resistance to anti-TNFα (n = 14)
compound,measurement,setting,value
"Cc1ccc(NC(=O)c2ccc(CN3CCN(C)CC3)cc2)cc1Nc1nc(-c2cccnc2)cs1 [masitinib, 4-(4-methylpiperazin-1-ylmethyl)-N-[4-methyl-3-(4-pyridin-3ylthiazol-2-ylamino)phenyl]benzamide]",ACRn Median,[1],64.9
same,ACRn Min-Max,[1],10.0-93.3
same,"DAS28 <2.6, patients",[2],1 (14%)
same,DAS28 Mean ± SD,[2],3.5 ± 1.5
same,DAS28 Median,[2],3.0
same,DAS28 Min-Max,[2],1.6-6.1
same,"DAS28 ≦3.2, patients",[2],4 (57%)
same,"ACR20, patients reaching level",[3],6 (67%)
same,"ACR50, patients reaching level",[3],3 (33%)
same,"ACR70, patients reaching level",[3],2 (22%)
same,"ACR90, patients reaching level",[3],1 (11%)
same,ACRn Mean ± SD,[3],35.6 ± 41.3
same,ACRn Median,[3],39.7
same,ACRn Min-Max,[3],−27.8-97.4
same,"CRP 0% < Improvement ≦25%, patients",[3],1 (11%)
same,"CRP 25% < Improvement ≦50%, patients",[3],1 (11%)
same,"CRP Deterioration, patients",[3],1 (11%)
same,"CRP Improvement >50%, patients",[3],6 (68%)
same,"CRP Stable, patients",[3],0 (0%)
same,"DAS28 <2.6, patients",[4],2 (50%)
same,DAS28 Mean ± SD,[4],3.1 ± 1.6
same,DAS28 Median,[4],2.5
same,DAS28 Min-Max,[4],1.9-5.5
same,"DAS28 ≦3.2, patients",[4],3 (75%)
same,"ACR20, patients reaching level",[5],7 (88%)
same,"ACR50, patients reaching level",[5],5 (63%)
same,"ACR70, patients reaching level",[5],2 (25%)
same,"ACR90, patients reaching level",[5],1 (13%)
same,ACRn Mean ± SD,[5],50.9 ± 38.0
same,ACRn Median,[5],55.0
same,ACRn Min-Max,[5],−17.6-98.8
same,"CRP 0% < Improvement ≦25%, patients",[5],1 (13%)
same,"CRP 25% < Improvement ≦50%, patients",[5],1 (13%)
same,"CRP Deterioration, patients",[5],1 (13%)
same,"CRP Improvement >50%, patients",[5],5 (63%)
same,"CRP Stable, patients",[5],0 (0%)
same,Share of patients achieving ACR20 who did so at the stated dosage at time of first response,dosage not given,approximately 65%
same,Share of patients achieving ACR50 who did so at the stated dosage at time of first response,dosage not given,~73%
same,Patients achieving up to 90% improvement (ACR90),"extension phase, after 1 year of treatment (60 weeks)",two
same,Duration over which observed improvement is maintained,"extension phase, preliminary",> 84 weeks
same,"Time to first response ACR20, Mean ± SD",[6],51.9 ± 24.5 days
same,"Time to first response ACR20, Median",[6],56 days
same,"Time to first response ACR20, Min-Max",[6],28.0 to 105.0 days
same,"Time to first response ACR50, Mean ± SD",[6],91.9 ± 59.5 days
same,"Time to first response ACR50, Median",[6],84 days
same,"Time to first response ACR50, Min-Max",[6],28.0 to 217.0 days
same,"Time to first response ACR20, Median",[7],56.0 days
same,"Time to first response ACR50, Median",[7],84.0 days
same,"Time to first response ACR20, Mean ± SD",[8],40.3 ± 19.0 days
same,"Time to first response ACR20, Median",[8],29 days
same,"Time to first response ACR20, Min-Max",[8],28.0 to 86.0 days
same,"Time to first response ACR50, Mean ± SD",[8],86.8 ± 61.1 days
same,"Time to first response ACR50, Median",[8],72.5 days
same,"Time to first response ACR50, Min-Max",[8],28.0 to 203.0 days
same,"Time to first response ACR20, Median","initial dosage 6 mg/kg/day (n = 18), ITT population, listed as Masitinib",29.0 days
same,Patients achieving ACR20 and ΔCRP>50% response criteria,regardless of previous treatment (anti-TNFα or MTX failure),approximately 50%
same,Patients with significant reduction (>50%) in CRP levels,week 12,approximately 50%
same,DAS28 Mean ± SD,[9],4.8 ± 1.5
same,DAS28 Min-Max,[9],0.5-7.0
same,ΔDAS28 (change in DAS28 score from baseline),[9],1.7
same,ACRn Mean ± SD,[10],23.0 and 23.0 ± 37.5
same,ACRn Median,[10],25.7
same,ACRn Min-Max,[10],−62.5-87.5
same,DAS28 Mean ± SD,[11],4.8 ± 1.5
same,DAS28 Min-Max,[11],0.5-7.0
same,ΔDAS28 (change in DAS28 score from baseline),[11],1.8
same,ACRn Mean ± SD,[12],24.1 ± 38.8
same,ACRn Median,[12],32.7
same,ACRn Min-Max,[12],−62.5-87.5
same,DAS28 Mean ± SD,[13],5.2 ± 1.1
same,DAS28 Min-Max,[13],3.3-7.0
same,ΔDAS28 (change in DAS28 score from baseline),[13],1.7
same,ACRn Mean ± SD,[14],18.7 ± 36.8
same,ACRn Median,[14],20.6
same,ACRn Min-Max,[14],−62.5-72.2
same,DAS28 Mean ± SD,[15],4.6 ± 1.3
same,DAS28 Min-Max,[15],0.5-7.0
same,ΔDAS28 (change in DAS28 score from baseline),[15],2.0
same,ACRn Mean ± SD,[16],31.6
same,ACRn Median,[16],42.9
same,ACRn Min-Max,[16],−40.0-87.5
same,DAS28 Mean ± SD,[17],4.6 ± 1.4
same,DAS28 Min-Max,[17],0.5-7.0
same,ΔDAS28 (change in DAS28 score from baseline),[17],2.1
same,ACRn Mean ± SD,[18],36.6 ± 31.6
same,ACRn Median,[18],46.9
same,ACRn Min-Max,[18],−40.0-87.5
same,DAS28 Mean ± SD,[19],5.1 ± 1.2
same,DAS28 Min-Max,[19],3.3-7.0
same,ΔDAS28 (change in DAS28 score from baseline),[19],1.8
same,ACRn Mean ± SD,[20],28.1 ± 32.1
same,ACRn Median,[20],44.3
same,ACRn Min-Max,[20],40.0-72.2
